From article PMC5926251 (Japanese Journal of Cancer Research : Gann, 2000)
In brackets after ≈: the same amount, converted by molar mass. Several values for one entry are separate records, joined by “and”; a condition that tells them apart may be missing. Equal values may be shown once. Read-outs that look alike come from different tables or passages of the source.

Tests used:
DNA polymerase α = target: T1, DNA polymerase α (Bos taurus, UniProt A0AAA9TD94); experiment: DNA polymerase assay, pol. α; assay type: biochemical, calf; settings: Table I; for MIC Pol. α: Minimum inhibitory concentration: dose that resulted in inhibition of 80% or more of the activity; for IC50: 50%-inhibitory concentration
T1 sequence (A0AAA9TD94 1-1441): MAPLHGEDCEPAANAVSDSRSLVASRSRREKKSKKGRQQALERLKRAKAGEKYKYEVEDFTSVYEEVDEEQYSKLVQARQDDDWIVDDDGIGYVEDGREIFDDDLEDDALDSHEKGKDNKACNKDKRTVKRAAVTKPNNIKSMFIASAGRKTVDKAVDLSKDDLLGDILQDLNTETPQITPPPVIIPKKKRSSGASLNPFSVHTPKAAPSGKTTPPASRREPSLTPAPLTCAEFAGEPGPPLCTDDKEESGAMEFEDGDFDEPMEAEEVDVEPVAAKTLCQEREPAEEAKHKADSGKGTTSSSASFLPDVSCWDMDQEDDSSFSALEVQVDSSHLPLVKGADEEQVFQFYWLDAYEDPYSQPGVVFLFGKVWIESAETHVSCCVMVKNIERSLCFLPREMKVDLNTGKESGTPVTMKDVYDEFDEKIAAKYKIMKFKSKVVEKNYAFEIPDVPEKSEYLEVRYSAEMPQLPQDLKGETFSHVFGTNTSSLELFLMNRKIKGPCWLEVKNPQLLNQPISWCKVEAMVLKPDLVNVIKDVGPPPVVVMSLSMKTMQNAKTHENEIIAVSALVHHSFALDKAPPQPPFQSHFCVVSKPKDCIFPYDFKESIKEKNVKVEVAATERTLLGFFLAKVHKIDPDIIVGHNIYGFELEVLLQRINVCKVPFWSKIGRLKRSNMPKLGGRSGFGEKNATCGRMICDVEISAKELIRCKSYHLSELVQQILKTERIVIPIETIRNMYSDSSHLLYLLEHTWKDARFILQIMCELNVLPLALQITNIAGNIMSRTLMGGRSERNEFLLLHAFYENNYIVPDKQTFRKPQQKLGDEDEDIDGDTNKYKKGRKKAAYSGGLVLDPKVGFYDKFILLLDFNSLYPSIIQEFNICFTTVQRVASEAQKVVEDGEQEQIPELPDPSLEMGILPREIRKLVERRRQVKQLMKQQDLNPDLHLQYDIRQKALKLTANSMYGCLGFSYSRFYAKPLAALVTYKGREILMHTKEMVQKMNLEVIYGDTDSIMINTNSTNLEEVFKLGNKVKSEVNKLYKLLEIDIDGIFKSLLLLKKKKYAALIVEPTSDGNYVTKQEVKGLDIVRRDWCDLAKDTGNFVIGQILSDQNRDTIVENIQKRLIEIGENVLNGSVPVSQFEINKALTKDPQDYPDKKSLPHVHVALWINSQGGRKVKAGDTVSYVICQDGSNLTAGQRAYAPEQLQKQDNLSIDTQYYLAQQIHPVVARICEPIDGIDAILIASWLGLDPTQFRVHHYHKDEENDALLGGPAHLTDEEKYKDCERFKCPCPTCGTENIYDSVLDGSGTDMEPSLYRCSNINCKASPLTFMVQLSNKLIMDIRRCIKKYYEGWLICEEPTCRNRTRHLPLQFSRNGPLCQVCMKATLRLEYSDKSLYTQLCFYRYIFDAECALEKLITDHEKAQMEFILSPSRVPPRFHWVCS

DNA polymerase β = DNA polymerase β (Rattus norvegicus, UniProt P06766); experiment: DNA polymerase assay, pol. β; assay type: biochemical; settings: for MIC Pol. β: Minimum inhibitory concentration: dose that resulted in inhibition of 80% or more of the activity
[1] = read-out: IC50 Pol. β, 50%-inhibitory concentration, Table I

| Structure (SMILES) | MIC Pol. α (DNA polymerase α) | IC50 (DNA polymerase α; read-out: IC50 Pol. α) | IC50 (DNA polymerase β; [1]) | IC50 (DNA polymerase α; IC50 Pol. α) | IC50 (DNA polymerase β) | MIC Pol. β (DNA polymerase β; Table I) |
| --- | --- | --- | --- | --- | --- | --- |
| CCCCCCCCCCCCCC(=O)OCC(CO)OC(=O)CCCCCCCCCCCCC (stereo not shown) | > 1000 µM | 550 µM | > 1000 µM |  |  |  |
| CCCCCCCCCCCCCCCCCC(=O)O [Stearic acid (18:0), Stearic acid, reference compound] | 35 µM (≈ 9.96 µg/mL) |  |  | 12 µM and 8 µM | 130 µM | 250 µM (≈ 71.1 µg/mL) |
| C[C@H]1OC(O)[C@H](O)[C@@H](O)[C@@H]1O (stereo partly shown) [II - Quinovose - -, Quinovose] |  |  |  | > 1000 µM | > 1000 µM |  |
| CCCCCCCCCCCCCCCC(=O)OCC(CO)OC(=O)CCCCCCCCCCCCCCC (stereo not shown) | > 1000 µM | 470 µM | > 1000 µM |  |  |  |
| C[C@H]1OC(OCC(O)CO)[C@H](O)[C@@H](O)[C@@H]1O (stereo partly shown) [II&III - Quinovose + -] |  | > 1000 µM | > 1000 µM |  |  |  |
| CCCCCCCCCCCCCC(=O)OC[C@H](CO[C@H]1O[C@H](CS(=O)(=O)O)[C@@H](O)[C@H](O)[C@H]1O)OC(=O)CCCCCCCCCCCCC [C14--SQDG] | 5.3 µM and 5.2 µM | 1.8 µM and 1.9 µM | 23 µM and 20 µM |  |  | 37 µM and 40 µM |
| CCCCCCCCCCCCCC(=O)O [Myristic acid (14:0), Myristic acid, reference compound] | 180 µM (≈ 41.1 µg/mL) |  |  | 95 µM | 440 µM | > 1000 µM |
| CCCCCCCCCCCCCCCCCC(=O)OCC(O)CO (stereo not shown) [III&IV - - + Stearic acid (18:0)/H] | > 1000 µM | 650 µM | > 1000 µM |  |  |  |
| C[C@@H]1OC(OCC(O)CO)[C@@H](O)[C@H](O)[C@@H]1O (stereo partly shown) [II&III - Fucose + -] |  | > 1000 µM | > 1000 µM |  |  |  |
| CCCCCCCCCCCCCCCC(=O)O [Palmitic acid (16:0), Palmitic acid, reference compound] | 100 µM (≈ 25.6 µg/mL) |  |  | 42 µM | 290 µM | 500 µM (≈ 128 µg/mL) |
